Data taken from PMC7038240 (Antimicrobial Agents and Chemotherapy, 2020).
Read-outs that look alike come from different tables or passages of the source.

Legend:
Type in all cases: cell-based
[1] = test system: C. freundii; assay: microbe, parasite or virus in culture; conditions: Citrobacter freundii
From the text: (§1) The antibacterial activity of cefepime-taniborbactam was compared to that of ceftazidime-avibactam, ceftolozane-tazobactam, and cefepime-tazobactam against a diverse panel of Enterobacterales and P. aeruginosa clinical isolates with defined β-lactamase subtypes (see Table S1 in the supplemental material). IMP-producing strains were excluded, as none of the BLI-protected cephalosporins inhibited IMP sufficiently to provide a clinically relevant rescue of the partner β-lactam, a characteristic also shared by approved BLI-protected carbapenems (meropenem-vaborbactam and imipenem-relebactam). […] The antibacterial activity of the cephalosporins alone was included to ascertain the level of potentiation by the partnered BLI. BLIs were tested at a fixed concentration of 4 μg/ml in all combinations except cefepime-tazobactam, where tazobactam was fixed at a concentration of 8 μg/ml ([38]). The collection comprised 143 clinical isolates collected from 2005 and 2018.
(§2) The in vitro antibacterial activity of the β-lactams alone or in combination with the BLIs was determined in cation-adjusted Mueller-Hinton broth (CAMHB) microdilution assays according to CLSI recommendations ([51]). […]. The inocula for the broth microdilution assays were prepared by the broth culture method ([51]). […]

[2] = test system: E. coli; assay: microbe, parasite or virus in culture
From the text: as §1, §2

[3] = test system: K. aerogenes; assay: microbe, parasite or virus in culture; conditions: Klebsiella aerogenes
From the text: as §1, §2

[4] = test system: K. oxytoca; assay: microbe, parasite or virus in culture; conditions: Klebsiella oxytoca
From the text: as §1, §2

[5] = test system: K. pneumoniae; assay: microbe, parasite or virus in culture
From the text: as §1, §2

[6] = test system: P. aeruginosa; assay: microbe, parasite or virus in culture
From the text: as §1, §2

[7] = test system: S. marcescens; assay: microbe, parasite or virus in culture; conditions: Serratia marcescens
From the text: as §1, §2

[8] = test system: S. paratyphi; assay: microbe, parasite or virus in culture; conditions: Salmonella enterica, strain 527, AmpC/TEM-1
From the text: as §1, §2

[9] = test system: S. typhi; assay: microbe, parasite or virus in culture; conditions: Salmonella enterica, strain 26A, AmpC/TEM-1
From the text: as §1, §2

[10] = test system: M. morgannii; assay: organism not typed; conditions: strain 769909; OXA-48
From the text: as §1, §2

Measured: MIC

CC(C)(O/N=C(\C(=O)N[C@@H]1C(=O)N2C(C(=O)[O-])=C(C[n+]3ccccc3)CS[C@H]12)c1csc(N)n1)C(=O)O [CAZ]
128 µg/mL: [2]; Escherichia coli, strain 873435, CTX-M-15, read-out: MIC | [2]; Escherichia coli, strain 1275635, VIM-23, read-out: MIC | [2]; Escherichia coli, strain ESBL 5, CTX-M-15/TEM-1, read-out: MIC | [3]; strain 110099, AmpC/SHV-12 | [4]; strain 134943, CMY-2/TEM-1, read-out: MIC | [5]; Klebsiella pneumoniae, strain 6299, OXA-163, read-out: MIC | [5]; Klebsiella pneumoniae, strain 178279, SHV-12/TEM-1/AmpC, read-out: MIC | [5]; Klebsiella pneumoniae, strain 212027, AmpC/FOX-5/TEM-1, read-out: MIC | [5]; Klebsiella pneumoniae, strain 664438, OXA-48, read-out: MIC | [5]; Klebsiella pneumoniae, strain 664439, OXA-48, read-out: MIC | [5]; Klebsiella pneumoniae, strain 752334, OXA-48, read-out: MIC | [5]; Klebsiella pneumoniae, strain ESBL 10, SHV-12/TEM-1, read-out: MIC | [5]; Klebsiella pneumoniae, strain KIRK, OXA-162, read-out: MIC | [6]; Pseudomonas aeruginosa, strain 11.516, PDC-79, read-out: MIC | [6]; Pseudomonas aeruginosa, strain 13.1737, PDC-80, read-out: MIC | [6]; Pseudomonas aeruginosa, strain 5671, VIM-1, read-out: MIC | [7]; strain 192476, AmpC/TEM-1/SHV-5 | [7]; strain 192478, AmpC/SHV-12/TEM-1
8 µg/mL: [1]; strain 241181, AmpC/TEM-163 | [2]; Escherichia coli, strain 875627, CTX-M-27, read-out: MIC | [2]; Escherichia coli, strain SI-LP377, CTX-M-2, read-out: MIC | [5]; Klebsiella pneumoniae, strain 787422, OXA-48, read-out: MIC | [8]
2 µg/mL: [6]; Pseudomonas aeruginosa, ATCC27853, strain ATCC 27853, W.T., read-out: MIC | [6]; Pseudomonas aeruginosa, strain 164951, W.T., read-out: MIC | [10]
16 µg/mL: [1]; strain 134390, AmpC/TEM-1 | [6]; Pseudomonas aeruginosa, strain 8273, PDC/TEM-1, read-out: MIC | [6]; Pseudomonas aeruginosa, strain 384743, PDC/TEM-1, read-out: MIC | [6]; Pseudomonas aeruginosa, strain PS-32, VIM-2, read-out: MIC
4 µg/mL: [2]; Escherichia coli, strain 890500, TEM-1/CTX-M-14, read-out: MIC | [6]; Pseudomonas aeruginosa, strain 1129, PDC, read-out: MIC | [6]; Pseudomonas aeruginosa, strain 377860, W.T., read-out: MIC | [6]; Pseudomonas aeruginosa, strain PA2, W.T., read-out: MIC
≥ 256 µg/mL: [2]; Escherichia coli, strain 1459453, NDM-7, read-out: MIC | [2]; Escherichia coli, strain CDC-0069, NDM, read-out: MIC | [2]; Escherichia coli, strain CDC-0149, NDM, read-out: MIC | [2]; Escherichia coli, strain SI-M004, SHV-2/GES-12, read-out: MIC | [4] | [5]; Klebsiella pneumoniae, strain 196477, AmpC, read-out: MIC | [5]; Klebsiella pneumoniae, strain 856819, SHV-11/VIM-1, read-out: MIC | [5]; Klebsiella pneumoniae, strain 874328, SHV-11/CTX-M-15/NDM-1, read-out: MIC | [5]; Klebsiella pneumoniae, strain 882956, SHV-31/DHA-1/VIM-1, read-out: MIC | [5]; Klebsiella pneumoniae, strain 890066, SHV-33/TEM-33/CTX-M-15/IMP-1, read-out: MIC | [5]; Klebsiella pneumoniae, strain 892694, SHV-12/TEM-1/CTX-M-15/OXA-48/ACT, read-out: MIC | [5]; Klebsiella pneumoniae, strain 919877, SHV-OSBL/VIM-1, read-out: MIC | [5]; Klebsiella pneumoniae, strain 1104864, SHV-OSBL(b)/VIM-1, read-out: MIC | [5]; Klebsiella pneumoniae, strain 1104866, SHV-OSBL(b)/VIM-1, read-out: MIC | [5]; Klebsiella pneumoniae, strain 1280442, SHV-OSBL(b)/VIM-1, read-out: MIC | [5]; Klebsiella pneumoniae, strain CDC-0049, NDM, read-out: MIC | [5]; Klebsiella pneumoniae, strain CDC-0139, NDM-1, read-out: MIC | [5]; Klebsiella pneumoniae, strain CDC-0145, NDM, read-out: MIC | [5]; Klebsiella pneumoniae, strain CDC-0148, NDM, read-out: MIC | [5]; Klebsiella pneumoniae, strain CDC-0152, NDM, read-out: MIC | [5]; Klebsiella pneumoniae, strain ESBL8 #1, TEM-1/SHV-12, read-out: MIC | [6]; Pseudomonas aeruginosa, strain 10.257, PDC-50, read-out: MIC | [6]; Pseudomonas aeruginosa, strain 11.698, PDC-87, read-out: MIC | [6]; Pseudomonas aeruginosa, strain 11.813, PDC-91, read-out: MIC | [6]; Pseudomonas aeruginosa, strain 13.1716, PDC-74, read-out: MIC | [6]; Pseudomonas aeruginosa, strain 13.1717, PDC-74, read-out: MIC | [6]; Pseudomonas aeruginosa, strain 13.1755, PDC-86, read-out: MIC | [6]; Pseudomonas aeruginosa, strain 13.1760, PDC-77, read-out: MIC | [6]; Pseudomonas aeruginosa, strain 13.1775, PDC-87, read-out: MIC | [6]; Pseudomonas aeruginosa, strain 247.3D, VIM-2, read-out: MIC | [6]; Pseudomonas aeruginosa, strain 1113755, GES-5, read-out: MIC | [6]; Pseudomonas aeruginosa, strain 1138223, GES-19, read-out: MIC | [6]; Pseudomonas aeruginosa, strain 1138337, GES-19, read-out: MIC | [6]; Pseudomonas aeruginosa, strain 1275655, GES-20, read-out: MIC | [6]; Pseudomonas aeruginosa, strain 1300089, GES-19, read-out: MIC | [6]; Pseudomonas aeruginosa, strain PAA1-9G1, GES-5, read-out: MIC | [6]; Pseudomonas aeruginosa, strain PAA1-9G2, GES-5, read-out: MIC | [6]; Pseudomonas aeruginosa, strain Paeβ-18, 600-fold ↑ PDC-3/<0.01% OprD/3.9x and 5.6x ↑ABM and XYM, read-out: MIC
64 µg/mL: [2] | [2]; Escherichia coli, strain 469, AmpC/SHV-12/TEM-1, read-out: MIC | [2]; Escherichia coli, strain 664507, OXA-48, read-out: MIC | [2]; Escherichia coli, strain 664516, OXA-48, read-out: MIC | [2]; Escherichia coli, strain 664520, OXA-48, read-out: MIC | [2]; Escherichia coli, strain 664522, OXA-48, read-out: MIC | [2]; Escherichia coli, strain 664523, OXA-48, read-out: MIC | [2]; Escherichia coli, strain EC1552 2A, AmpC/CMY-2/TEM-1, CTX-M-15, read-out: MIC | [2]; Escherichia coli, strain SI-PO26, AmpC/CMY-2/TEM-1, read-out: MIC | [5] | [5]; Klebsiella pneumoniae, strain 515746, OXA-48, read-out: MIC | [5]; Klebsiella pneumoniae, strain 722870, OXA-48, read-out: MIC | [5]; Klebsiella pneumoniae, strain 769972, OXA-48, read-out: MIC | [5]; Klebsiella pneumoniae, strain 873460, SHV-30/CTX-M-15, read-out: MIC | [5]; Klebsiella pneumoniae, strain DOV, OXA-48, read-out: MIC | [5]; Klebsiella pneumoniae, strain SI-C05, OXA-48, read-out: MIC | [6] | [6]; Pseudomonas aeruginosa, strain 1071703, GES-6, read-out: MIC | [6]; Pseudomonas aeruginosa, strain 1258509, GES-6, read-out: MIC | [6]; Pseudomonas aeruginosa, strain PS-12, VIM-2, read-out: MIC | [6]; Pseudomonas aeruginosa, strain Paeβ-15, 310-fold ↑ PDC-2/10% OprD/4.4x↑XYM, read-out: MIC | [6]; Pseudomonas aeruginosa, strain Paeβ-17, 62-fold ↑PDC-3/30% OprD/10.2x and 9.9x ↑XYM and CDJ, read-out: MIC | [6]; Pseudomonas aeruginosa, strain Paeβ-21, 200-fold ↑ PDC-4/10% OprD/13.5x ↑XYM, read-out: MIC | [6]; Pseudomonas aeruginosa, strain Ps296, VIM-2, read-out: MIC | [7]; strain 134434, AmpC/SHV-12/TEM-1 | [7]; strain 218073, AmpC/SHV-7/TEM-1 | [9]
0.5 µg/mL: [2]; Escherichia coli, strain VER, OXA-48, read-out: MIC
32 µg/mL: [2]; Escherichia coli, strain 1924, TEM-12, read-out: MIC | [2]; Escherichia coli, strain 878358, TEM-1/CTX-M, read-out: MIC | [2]; Escherichia coli, strain SI-V502, TEM-29/CTX-M-15, read-out: MIC | [3]; strain 73546, AmpC | [3]; strain 111707, AmpC/TEM-1 | [5]; Klebsiella pneumoniae, strain SI-F100, SHV-5/TEM-1/CMY-2, read-out: MIC | [6]; Pseudomonas aeruginosa, strain 3615, PDC/TEM-1, read-out: MIC | [6]; Pseudomonas aeruginosa, strain Paeβ-04, 100-fold ↑ PDC-2/30% OprD/5.6x ↑ABM, read-out: MIC | [6]; Pseudomonas aeruginosa, strain Paeβ-10, 67-fold ↑ PDC-2/0.1% OprD/5.7x↑ABM, read-out: MIC
